From ChEMBL document CHEMBL3868582, “Discovery, pharmacology, and clinical profile of omadacycline, a novel aminomethylcycline antibiotic” (Bioorg Med Chem, 2016)
In brackets after ≈: the same amount, converted by molar mass.

What was measured:
[1] = Induction of CYP2J2 mRNA level in human primary hepatocytes at 1 to 100 uM after 24 to 48 hrs relative to control; assay type: ADME, cell-based, Hepatocyte
Haemophilus influenzae [2] = test: Antibacterial activity against Haemophilus influenzae PBS981 infected in CD-1 mouse assessed as reduction in bacterial load in lungs administered intravenously as single dose after 2 hrs of infection measured after 24 hrs post treatment; assay type: functional; conditions: PBS981, iv
Haemophilus influenzae [3] = test: […] activity against Haemophilus influenzae assessed as reduction in bacterial load at MIC by time-kill analysis; assay type: functional
Escherichia coli [4] = test: Antibacterial activity against Escherichia coli; assay type: functional
Salmonella sp. = test: Antibacterial activity against Salmonella sp.; assay type: functional
Bacteroides fragilis = test: Antibacterial activity against Bacteroides fragilis; assay type: functional
Shigella sp. = test: Antibacterial activity against Shigella sp.; assay type: functional
[5] = Induction of CYP1A1 mRNA level in human primary hepatocytes at 1 to 100 uM after 24 to 48 hrs relative to control; assay type: ADME, cell-based, Hepatocyte
[6] = Induction of CYP2E1 mRNA level in human primary hepatocytes at 1 to 100 uM after 24 to 48 hrs relative to control; assay type: ADME, cell-based, Hepatocyte
[7] = Induction of CYP2C8 mRNA level in human primary hepatocytes at 1 to 100 uM after 24 to 48 hrs relative to control; assay type: ADME, cell-based, Hepatocyte
Haemophilus influenzae [8] = test: Antibacterial activity against Haemophilus influenzae PBS981; assay type: functional
Serratia marcescens = test: Antibacterial activity against Serratia marcescens; assay type: functional
Klebsiella pneumoniae = test: Antibacterial activity against Klebsiella pneumoniae by microdilution broth assay; assay type: functional
Streptococcus pneumoniae [9] = test: Antibacterial activity against Streptococcus pneumoniae PBS1399 infected in mouse assessed as protection against bacterial infection by measuring mouse survival administered intravenously as single dose after 2 hrs of infection measured on day 7; assay type: functional; conditions: PBS1399, iv, read-out: PD50
Enterobacter cloacae = test: Antibacterial activity against Enterobacter cloacae; assay type: functional
[10] = Induction of CYP2B6 mRNA level in human primary hepatocytes at 1 to 100 uM after 24 to 48 hrs relative to control; assay type: ADME, cell-based, Hepatocyte
[11] = Induction of CYP2C19 mRNA level in human primary hepatocytes at 1 to 100 uM after 24 to 48 hrs relative to control; assay type: ADME, cell-based, Hepatocyte
[12] = Induction of CYP3A4/5 mRNA level in human primary hepatocytes at 1 to 100 uM after 24 to 48 hrs relative to control; assay type: ADME, cell-based, Hepatocyte
[13] = Induction of CYP2C9 mRNA level in human primary hepatocytes at 1 to 100 uM after 24 to 48 hrs relative to control; assay type: ADME, cell-based, Hepatocyte
Clostridioides difficile [14] = test: Antibacterial activity against Clostridium difficile by broth microdilution assay; assay type: functional
[15] = Metabolic stability in human hepatocytes at 48 uM up to 24 hrs; assay type: ADME, cell-based, Hepatocyte; conditions: read-out: Stability
Proteus sp. = test: Antibacterial activity against Proteus sp.; assay type: functional; conditions: Proteus sp. (in: enterobacteria)
Providencia sp. = test: Antibacterial activity against Providencia sp.; assay type: functional
Staphylococcus aureus [16] = test: Antibacterial activity against Staphylococcus aureus USA400; assay type: functional
Pseudomonas aeruginosa = test: Antibacterial activity against Pseudomonas aeruginosa; assay type: functional
[17] = Induction of CYP2A6 mRNA level in human primary hepatocytes at 1 to 100 uM after 24 to 48 hrs relative to control; assay type: ADME, cell-based, Hepatocyte
Staphylococcus aureus [18] = test: Antibacterial activity against Staphylococcus aureus USA300; assay type: functional
Clostridium perfringens = test: Antibacterial activity against Clostridium perfringens; assay type: functional
[19] = Induction of CYP1B1 mRNA level in human primary hepatocytes at 1 to 100 uM after 24 to 48 hrs relative to control; assay type: ADME, cell-based, Hepatocyte
Haemophilus influenzae [20] = test: Antibacterial activity against Haemophilus influenzae; assay type: functional
[21] = Induction of CYP2D6 mRNA level in human primary hepatocytes at 1 to 100 uM after 24 to 48 hrs relative to control; assay type: ADME, cell-based, Hepatocyte
Streptococcus pneumoniae [22] = test: Antibacterial activity against Streptococcus pneumoniae PBS1399; assay type: functional
Klebsiella aerogenes = test: Antibacterial activity against Enterobacter aerogenes; assay type: functional
[23] = target: Voltage-gated inwardly rectifying potassium channel KCNH2 (Homo sapiens, UniProt Q12809); test: Inhibition of human ERG
Voltage-gated inwardly rectifying potassium channel KCNH2, sequence (Q12809 whole entry): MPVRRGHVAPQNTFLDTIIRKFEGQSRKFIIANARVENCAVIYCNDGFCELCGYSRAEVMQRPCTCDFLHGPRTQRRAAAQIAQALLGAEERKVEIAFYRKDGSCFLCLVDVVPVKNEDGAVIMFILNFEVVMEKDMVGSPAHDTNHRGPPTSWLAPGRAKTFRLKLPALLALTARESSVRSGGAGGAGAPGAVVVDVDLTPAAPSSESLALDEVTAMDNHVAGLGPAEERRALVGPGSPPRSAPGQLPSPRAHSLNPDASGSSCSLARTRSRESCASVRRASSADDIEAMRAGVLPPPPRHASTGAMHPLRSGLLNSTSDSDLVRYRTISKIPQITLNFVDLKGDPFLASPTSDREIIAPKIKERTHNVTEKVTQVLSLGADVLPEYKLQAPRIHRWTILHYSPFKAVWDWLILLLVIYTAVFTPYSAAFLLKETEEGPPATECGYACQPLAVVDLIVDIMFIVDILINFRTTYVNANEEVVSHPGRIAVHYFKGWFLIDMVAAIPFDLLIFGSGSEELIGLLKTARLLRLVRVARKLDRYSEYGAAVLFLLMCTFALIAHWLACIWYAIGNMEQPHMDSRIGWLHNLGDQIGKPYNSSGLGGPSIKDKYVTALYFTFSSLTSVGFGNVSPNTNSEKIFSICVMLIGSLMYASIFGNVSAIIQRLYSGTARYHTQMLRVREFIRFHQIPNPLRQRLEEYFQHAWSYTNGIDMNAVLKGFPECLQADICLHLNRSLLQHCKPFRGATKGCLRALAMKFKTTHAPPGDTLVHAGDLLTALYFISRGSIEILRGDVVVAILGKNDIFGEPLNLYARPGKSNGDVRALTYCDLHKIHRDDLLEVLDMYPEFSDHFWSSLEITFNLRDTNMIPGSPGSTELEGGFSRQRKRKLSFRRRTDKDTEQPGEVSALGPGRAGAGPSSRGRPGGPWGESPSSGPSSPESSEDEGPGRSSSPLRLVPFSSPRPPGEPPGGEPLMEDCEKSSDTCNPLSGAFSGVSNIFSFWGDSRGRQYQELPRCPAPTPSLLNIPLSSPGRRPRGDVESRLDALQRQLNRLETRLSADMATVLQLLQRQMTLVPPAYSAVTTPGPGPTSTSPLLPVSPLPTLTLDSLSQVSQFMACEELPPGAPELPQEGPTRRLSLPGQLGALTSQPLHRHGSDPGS

Clostridioides difficile [24] = test: Antibacterial activity against Clostridium difficile by agar microdilution assay; assay type: functional
Staphylococcus aureus [25] = test: Antibacterial activity against Staphylococcus aureus USA400 in mouse thigh wound infection model assessed as reduction in bacterial load administered intravenously as single dose after 2 hrs of infection measured after 24 hrs post treatment; assay type: functional; conditions: USA400, iv
Clostridioides difficile [26] = test: Antibacterial activity against Clostridium difficile infected in hamster model assessed as median survival time; assay type: functional
Moraxella catarrhalis = test: Antibacterial activity against Moraxella catarrhalis; assay type: functional
[27] = test system: Stenotrophomonas maltophilia; test: Antibacterial activity against Stenotrophomonas maltophilia; assay type: functional
Haemophilus influenzae [28] = test: Antibacterial activity against Haemophilus influenzae by microdilution broth assay; assay type: functional
[29] = Induction of CYP1A2 mRNA level in human primary hepatocytes at 1 to 100 uM after 24 to 48 hrs relative to control; assay type: ADME, cell-based, Hepatocyte
[30] = Metabolic stability in human microsomes at 4.8 uM after 30 mins; assay type: ADME, Microsome; conditions: read-out: Stability
Staphylococcus aureus [31] = test: Antibacterial activity against Staphylococcus aureus USA300 in mouse thigh wound infection model assessed as reduction in bacterial load administered intravenously as single dose after 2 hrs of infection measured after 24 hrs post treatment; assay type: functional; conditions: USA300, iv
Escherichia coli [32] = test: Antibacterial activity against Escherichia coli by microdilution broth assay; assay type: functional

Question: With CN(C)c1cc(CNCC(C)(C)C)c(O)c2c1C[C@H]1C[C@H]3[C@H](N(C)C)C(O)=C(C(N)=O)C(=O)[C@@]3(O)C(O)=C1C2=O [OMADACYCLINE] as the compound, how does the Activity [1] read?
Answer: Its Activity is less than 40%.

Question: And the ED50 (Haemophilus influenzae [2])?
Answer: Its ED50 is 6.47 mg/kg.

Question: And the Activity (Haemophilus influenzae [3])?
Answer: The Activity was “>=3 log10CFU”.

Question: What about the MIC90 (Escherichia coli [4]) of the same compound?
Answer: Its MIC90 is less than 4 µg/mL.

Question: And the MIC90 (Salmonella sp.)?
Answer: Its MIC90 is less than 4 µg/mL.

Question: And the MIC90 (Bacteroides fragilis)?
Answer: Its MIC90 is 0.12 to 4 µg/mL (≈ 0.216 to 7.19 µM).

Question: What about the MIC90 (Shigella sp.) of the same compound?
Answer: The MIC90 was less than 4 µg/mL.

Question: What about the Activity [5] of the same compound?
Answer: Its Activity is less than 40%.

Question: What about the Activity [6] of the same compound?
Answer: Its Activity is less than 40%.

Question: And the Activity [7]?
Answer: Its Activity is less than 40%.

Question: What about the MIC (Haemophilus influenzae [8]) of the same compound?
Answer: Its MIC is 1 µg/mL (≈ 1.8 µM).

Question: What about the MIC90 (Serratia marcescens) of the same compound?
Answer: Its MIC90 is less than 4 µg/mL.

Question: And the MIC90 (Klebsiella pneumoniae)?
Answer: Its MIC90 is 2 to 4 µg/mL (≈ 3.59 to 7.19 µM).

Question: What about the ED50 (Streptococcus pneumoniae [9]) of the same compound?
Answer: Its ED50 is 1.5 mg/kg.

Question: What about the MIC90 (Enterobacter cloacae) of the same compound?
Answer: The MIC90 was less than 4 µg/mL.

Question: What about the Activity [10] of the same compound?
Answer: Its Activity is less than 40%.

Question: What about the Activity [11] of the same compound?
Answer: The Activity was less than 40%.

Question: And the Activity [12]?
Answer: Its Activity is less than 40%.

Question: What about the Activity [13] of the same compound?
Answer: Its Activity is less than 40%.

Question: And the MIC90 (Clostridioides difficile [14])?
Answer: Its MIC90 is 0.06 µg/mL (≈ 0.108 µM).

Question: And the remaining at 24 h, 48 µM [15]?
Answer: The remaining at 24 h, 48 µM was greater than 86%.

Question: What about the MIC90 (Proteus sp.) of the same compound?
Answer: Its MIC90 is greater than 16 µg/mL.

Question: And the MIC90 (Providencia sp.)?
Answer: The MIC90 was greater than 16 µg/mL.

Question: What about the MIC (Staphylococcus aureus [16]) of the same compound?
Answer: The MIC was 0.5 µg/mL (≈ 0.898 µM).

Question: And the MIC90 (Pseudomonas aeruginosa)?
Answer: The MIC90 was greater than 16 µg/mL.

Question: What about the Activity [17] of the same compound?
Answer: The Activity was less than 40%.

Question: What about the MIC (Staphylococcus aureus [18]) of the same compound?
Answer: The MIC was 0.25 µg/mL (≈ 0.449 µM).

Question: And the MIC90 (Clostridium perfringens)?
Answer: Its MIC90 is 0.12 to 4 µg/mL (≈ 0.216 to 7.19 µM).

Question: What about the Activity [19] of the same compound?
Answer: Its Activity is less than 40%.

Question: And the MIC90 (Haemophilus influenzae [20])?
Answer: Its MIC90 is 2 µg/mL (≈ 3.59 µM).

Question: What about the Activity [21] of the same compound?
Answer: The Activity was less than 40%.

Question: And the MIC (Streptococcus pneumoniae [22])?
Answer: Its MIC is 0.125 µg/mL (≈ 0.225 µM).

Question: And the MIC90 (Klebsiella aerogenes)?
Answer: Its MIC90 is less than 4 µg/mL.

Question: What about the IC25 [23] of the same compound?
Answer: Its IC25 is 166 µg/mL (≈ 298 µM).

Question: What about the MIC90 (Clostridioides difficile [24]) of the same compound?
Answer: Its MIC90 is 0.12 µg/mL (≈ 0.216 µM).

Question: And the ED50 (Staphylococcus aureus [25])?
Answer: The ED50 was 0.68 mg/kg.

Question: What about the MST (Clostridioides difficile [26]) of the same compound?
Answer: Its MST is 12 days.

Question: And the MIC90 (Moraxella catarrhalis)?
Answer: The MIC90 was 0.25 µg/mL (≈ 0.449 µM).

Question: And the MIC90 [27]?
Answer: The MIC90 was less than 4 µg/mL.

Question: And the MIC90 (Haemophilus influenzae [28])?
Answer: Its MIC90 is 2 to 4 µg/mL (≈ 3.59 to 7.19 µM).

Question: And the Activity [29]?
Answer: The Activity was less than 40%.

Question: And the remaining at 0.5 h, 4.8 µM [30]?
Answer: The remaining at 0.5 h, 4.8 µM was greater than 90%.

Question: And the ED50 (Staphylococcus aureus [31])?
Answer: Its ED50 is 0.4 mg/kg.

Question: And the MIC90 (Escherichia coli [32])?
Answer: The MIC90 was 2 to 4 µg/mL (≈ 3.59 to 7.19 µM).
